Measurements published in patent US20100215579A1, “PHEN-NAPHTHALENE AND PHEN-QUINOLINE DERIVATIVES AND THEIR USE FOR BINDING AND IMAGING AMYLOID PLAQUES” (The Trustees of the University of Pennsylvania, priority 2007, published 2010).

Experiments:
[1] = Biodistribution in ICR mice after an iv injection; assay type: in vivo
Text: Biodistribution in ICR Mice After an iv Injection of [^18F][4-(6-{2-[2-(2-Fluoro-ethoxy)-ethoxy]-ethoxy}-naphthalen-2-yl)-phenyl]-methyl-amine in 1% EtOH/0.1% BSA in Water
(% dose/organ, avg of 3 mice±SD)
(% dose/g, avg of 3 mice±SD)
Biodistribution in ICR Mice After an iv Injection of [^18F]19a in 3% EtOH/0.1% BSA in Water
Biodistribution in ICR Mice After an iv Injection of [^18F]34a in 5% EtOH/0.1% BSA in Water
Biodistribution in ICR Mice After an iv Injection of [^18F]32a in 1% EtOH/0.1% BSA in Water

[2] = Log P (octanol/Na2HPO4 buffer pH 7.4); assay type: physicochemical; conditions: octanol/0.1 M Na2HPO4 buffer (pH 7.4)
[3] = Blood, 2 min after iv injection
[4] = Blood, 30 min after iv injection
[5] = Bone, 30 min after iv injection
[6] = Brain, 2 min after iv injection
[7] = Brain, 30 min after iv injection
[8] = Heart, 2 min after iv injection
[9] = Heart, 30 min after iv injection
[10] = Kidney, 2 min after iv injection
[11] = Kidney, 30 min after iv injection
[12] = Kidney, 1 hr after iv injection
[13] = Kidney, 2 hr after iv injection
[14] = Liver, 2 min after iv injection
[15] = Liver, 30 min after iv injection
[16] = Lung, 30 min after iv injection
[17] = Muscle, 2 min after iv injection
[18] = Muscle, 30 min after iv injection
[19] = Muscle, 1 hr after iv injection
[20] = Muscle, 2 hr after iv injection
[21] = Skin, 30 min after iv injection
[22] = Spleen, 2 min after iv injection
[23] = Spleen, 30 min after iv injection
[24] = Spleen, 1 hr after iv injection
[25] = Spleen, 2 hr after iv injection

SMILES: CN(C)c1ccc(-c2ccc3nc(OCCOCCOCC[18F])ccc3c2)cc1 [[^18F]32a]
- % dose/g [1, 3]: 1.80 ± 0.28 % dose/g
- % dose/organ [1, 3]: 3.32 ± 0.46 % dose/organ
- % dose/g [1, 4]: 0.99 ± 0.12 % dose/g
- % dose/organ [1, 4]: 1.80 ± 0.14 % dose/organ
- % dose/g ([1]; Blood, 1 hr after iv injection): 1.37 ± 0.14 % dose/g
- % dose/organ ([1]; Blood, 1 hr after iv injection): 2.40 ± 0.19 % dose/organ
- % dose/g ([1]; Blood, 2 hr after iv injection): 1.13 ± 0.15 % dose/g
- % dose/organ ([1]; Blood, 2 hr after iv injection): 2.00 ± 0.25 % dose/organ
- % dose/g ([1]; Bone, 2 min after iv injection): 1.25 ± 0.06 % dose/g
- % dose/organ ([1]; Bone, 2 min after iv injection): 4.63 ± 0.32 % dose/organ
- % dose/g [1, 5]: 0.81 ± 0.11 % dose/g
- % dose/organ [1, 5]: 2.92 ± 0.27 % dose/organ
- % dose/g ([1]; Bone, 1 hr after iv injection): 1.11 ± 0.14 % dose/g
- % dose/organ ([1]; Bone, 1 hr after iv injection): 3.91 ± 0.37 % dose/organ
- % dose/g ([1]; Bone, 2 hr after iv injection): 1.47 ± 0.27 % dose/g
- % dose/organ ([1]; Bone, 2 hr after iv injection): 5.19 ± 0.80 % dose/organ
- % dose/g [1, 6]: 7.76 ± 1.25 % dose/g
- % dose/organ [1, 6]: 3.56 ± 0.47 % dose/organ
- % dose/g [1, 7]: 2.33 ± 0.68 % dose/g
- % dose/organ [1, 7]: 1.07 ± 0.24 % dose/organ
- % dose/g ([1]; Brain, 1 hr after iv injection): 1.92 ± 0.31 % dose/g
- % dose/organ ([1]; Brain, 1 hr after iv injection): 0.86 ± 0.14 % dose/organ
- % dose/g ([1]; Brain, 2 hr after iv injection): 1.45 ± 0.11 % dose/g
- % dose/organ ([1]; Brain, 2 hr after iv injection): 0.66 ± 0.03 % dose/organ
- % dose/g [1, 8]: 10.1 ± 1.14 % dose/g
- % dose/organ [1, 8]: 1.36 ± 0.20 % dose/organ
- % dose/g [1, 9]: 1.99 ± 0.43 % dose/g
- % dose/organ [1, 9]: 0.26 ± 0.06 % dose/organ
- % dose/g ([1]; Heart, 1 hr after iv injection): 2.07 ± 0.23 % dose/g
- % dose/organ ([1]; Heart, 1 hr after iv injection): 0.25 ± 0.03 % dose/organ
- % dose/g ([1]; Heart, 2 hr after iv injection): 1.28 ± 0.09 % dose/g
- % dose/organ ([1]; Heart, 2 hr after iv injection): 0.15 ± 0.01 % dose/organ
- % dose/g [1, 10]: 13.0 ± 3.04 % dose/g
- % dose/organ [1, 10]: 5.25 ± 0.89 % dose/organ
- % dose/g [1, 11]: 3.61 ± 0.65 % dose/g
- % dose/organ [1, 11]: 1.55 ± 0.33 % dose/organ
- % dose/g [1, 12]: 3.38 ± 0.38 % dose/g
- % dose/organ [1, 12]: 1.24 ± 0.19 % dose/organ
- % dose/g [1, 13]: 1.78 ± 0.06 % dose/g
- % dose/organ [1, 13]: 0.73 ± 0.02 % dose/organ
- % dose/g [1, 14]: 16.3 ± 4.96 % dose/g
- % dose/organ [1, 14]: 19.4 ± 3.67 % dose/organ
- % dose/g [1, 15]: 8.02 ± 0.65 % dose/g
- % dose/organ [1, 15]: 11.2 ± 1.65 % dose/organ
- % dose/g ([1]; Liver, 1 hr after iv injection): 8.10 ± 1.59 % dose/g
- % dose/organ ([1]; Liver, 1 hr after iv injection): 9.75 ± 1.79 % dose/organ
- % dose/g ([1]; Liver, 2 hr after iv injection): 5.22 ± 0.49 % dose/g
- % dose/organ ([1]; Liver, 2 hr after iv injection): 6.34 ± 0.87 % dose/organ
- % dose/g ([1]; Lung, 2 min after iv injection): 7.63 ± 0.46 % dose/g
- % dose/organ ([1]; Lung, 2 min after iv injection): 1.54 ± 0.16 % dose/organ
- % dose/g [1, 16]: 2.31 ± 0.42 % dose/g
- % dose/organ [1, 16]: 0.42 ± 0.07 % dose/organ
- % dose/g ([1]; Lung, 1 hr after iv injection): 2.21 ± 0.19 % dose/g
- % dose/organ ([1]; Lung, 1 hr after iv injection): 0.40 ± 0.01 % dose/organ
- % dose/g ([1]; Lung, 2 hr after iv injection): 1.43 ± 0.03 % dose/g
- % dose/organ ([1]; Lung, 2 hr after iv injection): 0.27 ± 0.00 % dose/organ
- % dose/g [1, 17]: 0.83 ± 0.19 % dose/g
- % dose/organ [1, 17]: 8.87 ± 2.47 % dose/organ
- % dose/g [1, 18]: 1.20 ± 0.28 % dose/g
- % dose/organ [1, 18]: 12.3 ± 2.18 % dose/organ
- % dose/g [1, 19]: 1.09 ± 0.09 % dose/g
- % dose/organ [1, 19]: 11.0 ± 0.64 % dose/organ
- % dose/g [1, 20]: 0.81 ± 0.14 % dose/g
- % dose/organ [1, 20]: 8.16 ± 1.14 % dose/organ
- % dose/g ([1]; Skin, 2 min after iv injection): 0.42 ± 0.06 % dose/g
- % dose/organ ([1]; Skin, 2 min after iv injection): 1.68 ± 0.22 % dose/organ
- % dose/g [1, 21]: 0.98 ± 0.33 % dose/g
- % dose/organ [1, 21]: 3.86 ± 1.41 % dose/organ
- % dose/g ([1]; Skin, 1 hr after iv injection): 0.94 ± 0.06 % dose/g
- % dose/organ ([1]; Skin, 1 hr after iv injection): 3.53 ± 0.16 % dose/organ
- % dose/g ([1]; Skin, 2 hr after iv injection): 0.82 ± 0.15 % dose/g
- % dose/organ ([1]; Skin, 2 hr after iv injection): 3.11 ± 0.48 % dose/organ
- % dose/g [1, 22]: 4.95 ± 0.78 % dose/g
- % dose/organ [1, 22]: 0.51 ± 0.09 % dose/organ
- % dose/g [1, 23]: 1.56 ± 0.28 % dose/g
- % dose/organ [1, 23]: 0.15 ± 0.03 % dose/organ
- % dose/g [1, 24]: 1.64 ± 0.13 % dose/g
- % dose/organ [1, 24]: 0.15 ± 0.04 % dose/organ
- % dose/g [1, 25]: 1.16 ± 0.07 % dose/g
- % dose/organ [1, 25]: 0.09 ± 0.01 % dose/organ
- Log P [2]: 2.77
